Consider five molecules from patent US9539272B2, “HDAC 6 inhibitor-based methods for treating cancer” (SLOAN-KETTERING INSTITUTE FOR CANCER RESEARCH, priority 2009, dated 2017).

In assay [1] the test system is acetylated α-tubulin and acetylated histone H3 in LNCaP cells. Description: Accumulation of acetylated α-tubulin and acetylated histone H3 in LNCaP cells (Western blot). The assay is classed as cell-based, human. The settings on record: BAHA 1.0 or 1.5 μM, SAHA 1.5 and 2.0 μM. As to the method: 2×10^6 transformed cells were cultured for 24 hrs in a 10 cm tissue culture dish with 10 ml RPMI 1640 medium. HDAC inhibitors and/or other agents were added in concentrations as indicated for each study to the cultures and cell cultured for times indicated. Cells were harvested by scrapping, washed once with PBS, lyzed with histone extraction buffer (1 ml/10^7 cells), which contains 10 mM MgCl2, 10 mM Tris, 25 mM KCl, 1% Triton X-100, 8.6% sucrose and protease inhibitor cocktail (Roche Diagnostics Gmbh, Indianapolis, Ind.), pH 6.5. Cells were centrifuged at 600 g at 4° C. for 5 mins. The supernatants were saved as cell lyates. The pellets (nuclei) were washed once with TE buffer, suspended in 0.4 NH2SO4 (100 μl/10^7 cells), incubated for 1 hr on ice, and centrifuged at 10,000 g for 10 mins at 4° C. The supernatant was collected, mixed with 1 ml acetone, incubated at −20° C. for more than 1 hr, and centrifuged at 10,000 g for 10 mins at 4° C. The pellets were suspended in water (100 μl/10^7 cells). The protein concentrations were measured with Braford reagent (Bio-Rad, Hercules, Calif.).
1×10^6 cells in a 10 cm diameter cell culture dish were washed with PBS, harvested by trypsinization in 0.05% trypsin for LNCaP and 0.25% trypsin for MCF7, A549, HFS and WI38 resuspended in RIPA at 50 μl for every 1×10^6 cells. Antibodies used were: anti-acetylated tubulin (Sigma), anti-HDAC 6 (Santa Cruz Biotechnology), and anti-tubulin (Calbiochem), (Xu et al. Cancer Research, 65:7832-7839, 2005).
(In general: Immunoblotting shows a protein as a band on a membrane.)

Assay [2] has as its target recombinant human HDAC1 (Homo sapiens, UniProt Q13547). Description: In vitro HDAC assay with fluorogenic substrate, HDAC 1.
Experimental: Inhibition of HDAC 1 and HDAC 6 were analyzed with a fluorogenic substrate according to manufacture's protocol (HDAC assay reagents were purchased from BPS Biosciences, San Diego, Calif.). 50 μl reaction mixture, which contains 1×HDAC assay buffer, 5 units of recombinant human HDAC1 or HDAC 6, 10 μM substrate 3 and 1 μl inhibitor in DMSO, was incubated at 37° C. for 1 hour. […] The fluorescence intensity was measured at excitation of 360 nm and emission of 460 nm with SpectraMax Gemini XS microplate reader (Molecular Devices, Sunny Calif.).
The test system of assay [3] is LNCaP cells. In words: Cell growth and viability by trypan blue exclusion, LNCaP.
Experimental: (§1) 5×10^4 cells were seeded per well in a 24-well plate and cultured overnight prior to treating with the compound and/or other agents as indicated for each study. Cells were harvested at 24, 48 and 72 hrs after treatment by trypsin digestion. […] At least three independent analyses were performed for each time point.
(§2) To monitor cell growth and viability, cells were seeded in triplicate at 5×10^4 cells in 1 ml of medium in 24-well plates. The drugs were added at the indicated concentrations 24 h after seeding. Cells were harvested by trypsin digestion at 24 h, 48 h and 72 h following drug additions. Cell number and viability were determined by trypan blue exclusion.
Assay [4] concerns acetylated tubulin and acetylated histone H3 in A549 cells. Conditions: 24 hrs, tubacin 0.2, 2 or 20 μM; cited from earlier work.
In assay [5] the test system is MCF-7 cells. In words: Cell growth and viability by trypan blue exclusion, MCF-7. In kind it is cell-based, human. Conditions: MCF-7, 72 hrs; 8 μM tubacin, 5 μM SAHA, […] doxorubicin, 100 μM etoposide, alone or plus 8 μM tubacin.
Experimental: as §1, §2
In assay [6] the test system is LNCaP HDAC 6 knockdown cells. In words: Cell viability, LNCaP HDAC 6 knockdown cells. In kind it is cell-based, human. From the text:
shRNA lentiviral particles targeting different regions of HDAC6 mRNA, HDAC6 KD1 (HDAC6 knockdown 1) at 1.7×10^7 TU/ml and HDAC6 KD2 (HDAC6 knockdown 2) at 1.9×10^7 TU/ml, and a non-targeting ‘scramble’ shRNA control particles (#SHC002V) at 1.1×10^7 TU/ml, were purchased from Sigma-Aldrich and transfected according to the manufacturer's instructions using polybrene (Millipore). The 21-nucleotide sequence corresponding to HDAC6 mRNA for HDAC6 KD1 is 5′-[…]-3′ and for HDAC6 KD2 is 5′-[…]-3′. For each shRNA, 5×10^5 cells were infected at an MOT of 2.

Assay [7] deals with LNCaP cells. Description: Quantitative real-time PCR in LNCaP cells. In kind it is cell-based, human. The settings on record: for expression of Mcm4, Mcm6, Cdt1 and Psf2: quantitative real-time PCR. As to the method:
[…] of total RNA was reverse-transcribed using the Thermoscript RT-PCR system (Invitrogen) at 52° C. for 1 h. 20 ng of resultant cDNA was used in a Q-PCR reaction using an 7500 Real-Time PCR System (Applied Biosystems) using predesigned primers for DDIT3, DDIT4, Mcm4, Mcm6, Cdt1, Psf2 and GAPDH (Applied Biosystems). Amplification was carried for 40 cycles (95° C. for 15 sec, 60° C. for 1 min). To calculate the efficiency of the PCR reaction, and to assess the sensitivity of each assay, we performed a 6 point standard curve (5, 1.7, 0.56, 0.19, 0.062, and 0.021 ng). Triplicate CT values were averaged, amounts of target were interpolated from the standard curves and normalized to GAPDH (assay Hs99999909_m1).
(In general: Real-time PCR tracks product formation cycle by cycle.)

For assay [8], the system named is LNCaP cells. In words: Cell cycle analysis by flow cytometry, LNCaP. In kind it is cell-based, human. Conditions: 24 h, propidium iodide. As to the method: Cells were harvested at 24 h culture with the indicated drugs, washed with PBS and fixed in methanol. Cells were then resuspended in a buffer containing […] propidium iodide and […] RNase A. Samples were analysed by flow cytometry using a Becton Dickinson FACSCalibur flow cytometer. Data were collected for 10,000 events and analyzed using FlowJo software.

The test system of assay [9] is HFS cells. Description: Cell viability, normal human foreskin cells (HFS). The assay is classed as cell-based. Conditions: 8 μM tubacin, 5 μM SAHA, alone or together.
Experimental: as §1, §2
Assay [10] relates to WI38 cells. In words: Cell viability, normal human embryonic fibroblast WI38. The assay is classed as cell-based. Conditions: 8 μM tubacin, 5 μM SAHA, alone or together.
Experimental: as §1
For assay [11], the system named is γH2AX. In words: Accumulation of γH2AX in LNCaP cells (Western blot, ImageJ quantitation). The settings on record: 24 h. The assay is classed as cell-based, human.
Experimental: 1×10^6 cells were seeded in a 10 cm diameter cell culture dish and cultured overnight prior to addition of the indicated drugs, washed with PBS, harvested by trypsinisation and lysed in RIPA buffer (50 mM Tris-HCL pH8.0, 120 mM NaCl, 0.5 mM EDTA, 0.5% NP-40). […] Quantitation of western blots was performed using ImageJ.
For assay [12], the system named is LNCaP cells. In words: Microarray analysis of gene expression in LNCaP cells. Set-up: Total gene number: dose or concentration left out as unconfirmed. The assay is classed as cell-based, human. As to the method:
Alterations in gene expression were evaluated by microarray using the Illumina human cDNA array containing cDNA probes representing the whole genome (10000 genes). […] Triplicate samples were prepared for each drug treatment at each time point. Poly(A)+ mRNA was isolated from cells using Trizol reagent according to manufacturer's protocol (Invitrogen). The data was analyzed using the Bioconductor packages (www.bioconductor.com) for the R statistical system. The output from Beadstudio was processed using the LUMI package. The normalization method used was quantile and the signal levels were log (base 2) transformed. To determine genes that are differentially expressed between the various sample types, the LIMMA package was used.

Structures are written as SMILES. Values joined by “and” are separate entries in the source; they are usually repeats but may differ in a detail not shown here. Equal entries are not always repeated. “Also recorded” adds a separate entry of the source.

Chain of recombinant human HDAC1 (Q13547 whole entry): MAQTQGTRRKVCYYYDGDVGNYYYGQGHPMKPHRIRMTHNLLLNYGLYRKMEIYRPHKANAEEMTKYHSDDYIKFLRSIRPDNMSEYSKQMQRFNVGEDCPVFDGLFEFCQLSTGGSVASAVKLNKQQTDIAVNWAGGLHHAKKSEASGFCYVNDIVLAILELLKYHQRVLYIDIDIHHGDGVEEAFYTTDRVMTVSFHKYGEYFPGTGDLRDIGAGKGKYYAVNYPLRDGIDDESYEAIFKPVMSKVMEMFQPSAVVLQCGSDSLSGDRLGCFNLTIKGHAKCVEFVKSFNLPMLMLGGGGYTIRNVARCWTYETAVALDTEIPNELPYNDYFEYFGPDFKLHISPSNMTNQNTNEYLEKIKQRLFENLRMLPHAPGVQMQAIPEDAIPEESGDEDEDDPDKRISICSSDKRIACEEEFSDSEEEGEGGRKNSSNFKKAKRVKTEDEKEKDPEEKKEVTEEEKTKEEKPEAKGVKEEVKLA

Broadly, the IC50 is the midpoint of a concentration-inhibition curve. For `CC(C)(C)OC(=O)Nc1ccc(-c2cc(C(=O)NCCCCCCC(=O)NO)no2)cc1` [BAHA], in assay [1], the “accumulation of acetylated histone H3” value is recorded as “little or no accumulation” and the “accumulation of acetylated α-tubulin” value was “caused the accumulation”. Moreover, the IC50 in [2] was found to be 53.7 nM. In addition, in assay [3] (LNCaP, 1 μM BAHA), the cell death result is given as “no cell death” and the cell growth entry was “moderate inhibition”.
Take `CC(/C=C/C(=O)NO)=C\[C@@H](C)C(=O)c1ccc(N(C)C)cc1` [Trichostatin A]: in [4], the “accumulation of acetylated histone H3” value was “caused the accumulation” and the “accumulation of acetylated tubulin” value was “caused the accumulation”.
As to `COc1cccc2c1C(=O)c1c(O)c3c(c(O)c1C2=O)C[C@@](O)(C(=O)CO)C[C@@H]3O[C@H]1C[C@H](N)[C@H](O)[C@H](C)O1` [doxorubicin], the cell death is 25% in assay [5]; 85% in assay [6] (LNCaP HDAC 6 knock down, 10 nM doxorubicin, 72 hrs); 90% in [6] (LNCaP HDAC 6 knock down, 100 nM doxorubicin, 72 hrs); 95% in assay [6] (LNCaP HDAC 6 knock down, 500 nM doxorubicin, 72 hrs); 40% in [3] (LNCaP, 5 nM doxorubicin, alone or plus 8 μM tubacin, 48 hrs); 80% in assay [3] (LNCaP, […] doxorubicin, alone or plus 8 μM tubacin, 48 hrs). Moreover, the cell death is recorded as 45% in assay [3] (wild type LNCaP, 10 nM doxorubicin, 72 hrs); 75% in [3] (wild type LNCaP, 100 nM doxorubicin, 72 hrs); 85% in assay [3] (wild type LNCaP, 500 nM doxorubicin, 72 hrs). The “rate of cell growth” value was “markedly decreased” in assay [5] and “decreased” in [3] (LNCaP, 10 nM doxorubicin, alone or plus 8 μM tubacin).
As to `COc1cc([C@@H]2c3cc4c(cc3[C@@H](O[C@@H]3O[C@@H]5CO[C@@H](C)O[C@H]5[C@H](O)[C@H]3O)[C@H]3COC(=O)[C@H]23)OCO4)cc(OC)c1O` [etoposide], the cell death in [5] turned out to be 30%; in assay [6] (LNCaP HDAC 6 knockdown, 10 μM etoposide, 48 hrs), 20%; in assay [6] (LNCaP HDAC 6 knockdown, 50 μM etoposide, 48 hrs), 35%; in assay [6] (LNCaP HDAC 6 knockdown, 100 μM etoposide, 48 hrs), 55%; in assay [3] (LNCaP, 50 μM etoposide, alone or plus 8 μM tubacin, 72 hrs) it was 50%; in assay [3] (LNCaP, 100 μM etoposide, alone or plus 8 μM tubacin, 72 hrs), 80%. Also, the cell death in assay [3] (wild type LNCaP, 10 μM etoposide, 48 hrs) is given as 10%; in assay [3] (wild type LNCaP, 50 μM etoposide, 48 hrs) it was 30%; in [3] (wild type LNCaP, 100 μM etoposide, 48 hrs) it was 40%. In addition, in assay [5], the “rate of cell growth” value is listed as “markedly decreased”. In addition, the “expression of Mcm4, Mcm6, Cdt1 and Psf2” value in assay [7] is on record as “downregulated”. For the same molecule, the cell cycle distribution entry in assay [8] was “small increase in cells in G1”.
With `O=C(CCCCCCC(=O)Nc1ccc([C@H]2O[C@@H](CSc3nc(-c4ccccc4)c(-c4ccccc4)o3)C[C@@H](c3ccc(CO)cc3)O2)cc1)NO` [tubacin], the cell death entry was “did not induce MCF-7 cell death” in assay [5]; “did not cause cell death” in [9]; “did not cause cell death” in assay [10]; “did not cause cell death; also recorded: did not induce LNCaP cell death” in [3] (LNCaP, tubacin alone (8 μM), up to 72 hrs). The “rate of cell growth” value in [5] was “somewhat decreased”. Further, the “accumulation of γH2AX” value in assay [11] is “increased”. For the same molecule, the “DDIT3 gene expression change” value was “* (No detectable change of ≧2-fold)” in assay [12] (2 h); 7 fold and 7.04 fold in assay [12] (24 h). The Total gene number amounted to 1 in [12] (2 h, genes changed ≧2-fold); 7 in [12] (8 h, ≧2-fold); 225 in assay [12] (24 h, ≧2-fold). In addition, the Downregulated genes in assay [12] (2 h, ≧2-fold) was 0; in [12] (8 h, ≧2-fold) it was 1; in assay [12] (24 h, ≧2-fold), 72. In addition, the Upregulated genes was 1 in assay [12] (2 h, ≧2-fold); 6 in [12] (8 h, ≧2-fold); 153 in assay [12] (24 h, ≧2-fold). Further, the “DDIT4 gene expression change” value in assay [12] (8 h) was 5.54 fold; in assay [12] (24 h), 6.8 fold. The “DDIT4 expression by quantitative real-time PCR” value in assay [7] is “upregulation”. Besides, the “expression of Mcm4, Mcm6, Cdt1 and Psf2” value in assay [7] is recorded as “downregulated”. For the same molecule, in assay [8], the cell cycle distribution entry is listed as “increase in G1 arrest”. The “accumulation of acetylated histone H3” value in [4] is “but not acetylated histone H3”. The “accumulation of acetylated tubulin” value in assay [4] is reported as “caused an accumulation”. Also, the IC50 in assay [2] came to 82 nM.
